Laboratory results taken from ChEMBL document CHEMBL3526064, “Sequential metabolism of AMG 487, a novel CXCR3 antagonist, results in formation of quinone reactive metabolites that covalently modify CYP3A4 Cys239 and cause time-dependent inhibition of the enzyme” (Drug Metab Dispos, 2012).

What was measured:
Cytochrome P450 3A4 [1] = molecular target: T1, Cytochrome P450 3A4 (Homo sapiens, UniProt P08684); experiment: Drug metabolism assessed as recombinant CYP3A4 (unknown origin)-compound formation treated with (R)-N-(1-(3-(4-hydroxyphenyl)-4-oxo-3,4-dihydropyrido[2,3-d]pyrimidin-2-yl)ethyl)-N-([2-3H]pyridin-3-ylmethyl)-2-(4-(trifluoromethoxy)phenyl)acetamide preincubated for 5 mins followed NADPH addition measured after 45 mins by TIC mass chromatographic analysis; assay type: ADME; conditions: recombinant enzyme, 0.75 h
Cytochrome P450 3A4 [2] = molecular target: T1, Cytochrome P450 3A4; experiment: Drug metabolism assessed as recombinant CYP3A4 (unknown origin)-mediated (R)-N-(1-(3-(3,4-dihydroxyphenyl)-4-oxo-3,4-dihydropyrido[2,3-d]pyrimidin-2-yl)ethyl)-N-(pyridin-3-ylmethyl)-2-(4-(trifluoromethoxy)phenyl)acetamide formation preincubated for 5 mins followed NADPH addition measured after 45 mins by TIC mass chromatographic analysis in presence of GSH; assay type: ADME; conditions: recombinant enzyme, 0.75 h
Cytochrome P450 3A4 [3] = molecular target: T1, Cytochrome P450 3A4; experiment: Drug metabolism assessed as recombinant CYP3A4 (unknown origin)-mediated (R)-N-(1-(3-(2,4-dihydroxyphenyl)-4-oxo-3,4-dihydropyrido[2,3-d]pyrimidin-2-yl)ethyl)-N-(pyridin-3-ylmethyl)-2-(4-(trifluoromethoxy)phenyl)acetamide formation preincubated for 5 mins followed NADPH addition measured after 45 mins by TIC mass chromatographic analysis in presence of GSH; assay type: ADME; conditions: recombinant enzyme, 0.75 h
Cytochrome P450 3A4 [4] = molecular target: T1, Cytochrome P450 3A4; experiment: Drug metabolism assessed as recombinant CYP3A4 (unknown origin)-mediated compound formation treated with [3H]-(R)-N-(1-(3-(4-hydroxyphenyl)-4-oxo-3,4-dihydropyrido[2,3-d]pyrimidin-2-yl)ethyl)-N-(pyridin-3-ylmethyl)-2-(4-(trifluoromethoxy)phenyl)acetamide preincubated for 5 mins followed NADPH addition measured after 45 mins by TIC mass chromatographic analysis in presence of GSH; assay type: ADME; conditions: recombinant enzyme, 0.75 h
Cytochrome P450 3A4 [5] = molecular target: T1, Cytochrome P450 3A4; experiment: Time dependent inhibition of CYP3A4 in human liver microsomes assessed as conversion of midazolam to 1'-hydroxymidazolam at 0.1 to 30 uM by LC-MS/MS analysis; assay type: ADME
Cytochrome P450 3A4 [6] = molecular target: T1, Cytochrome P450 3A4; experiment: Time dependent inhibition of CYP3A4 in human liver microsomes assessed as conversion of testosterone to 6beta-hydroxytestosterone 0.1 to 30 uM by LC-MS/MS analysis; assay type: ADME
CYP3A4 [7] = molecular target: T2, CYP3A4 (Homo sapiens, UniProt P08684); experiment: (§1) Inhibition of CYP3A4 in human liver microsomes using midazolam as substrate assessed as residual enzyme activity after 2 to 10 mins by LC-MS/MS analysis; assay type: ADME; conditions: human, liver microsomes, probe midazolam
Cytochrome P450 3A4 [8] = molecular target: T1, Cytochrome P450 3A4; experiment: as §1; assay type: ADME
CYP3A4 [9] = molecular target: T2, CYP3A4; experiment: (§2) Inhibition of CYP3A4 in human liver microsomes using testosterone as substrate assessed as residual enzyme activity after 2 to 10 mins by LC-MS/MS analysis; assay type: ADME; conditions: human, liver microsomes, probe testosterone
Cytochrome P450 3A4 [10] = molecular target: T1, Cytochrome P450 3A4; experiment: as §2; assay type: ADME
Cytochrome P450 3A4 [11] = molecular target: T1, Cytochrome P450 3A4; experiment: Inhibition of CYP3A4 in human liver microsomes using midazolam as substrate assessed as unbound inhibitor concentration required for half maximal enzyme inactivation after 2 to 10 mins by LC-MS/MS analysis; assay type: ADME
Cytochrome P450 3A4 [12] = molecular target: T1, Cytochrome P450 3A4; experiment: Inactivation of recombinant CYP3A4 (unknown origin) using testosterone as substrate assessed as partition ratio up to 30 uM preincubated for 5 mins followed by dialysis measured after 4 hrs; assay type: ADME; conditions: recombinant enzyme
Cytochrome P450 3A4 [13] = molecular target: T1, Cytochrome P450 3A4; experiment: Time dependent inhibition of CYP3A4 in human liver microsomes using midazolam as substrate preincubated for 30 mins followed by 10-fold dilution and substrate addition by LC-MS/MS analysis; assay type: ADME
Cytochrome P450 3A4 [14] = molecular target: T1, Cytochrome P450 3A4; experiment: Time dependent inhibition of CYP3A4 in human liver microsomes using testosterone as substrate preincubated for 30 mins followed by 10-fold dilution and substrate addition by LC-MS/MS analysis; assay type: ADME
Cytochrome P450 3A4 [15] = molecular target: T1, Cytochrome P450 3A4; experiment: Time dependent inhibition of CYP3A4 in human liver microsomes using midazolam as substrate preincubated for 30 mins followed by 10-fold dilution and substrate addition by LC-MS/MS analysis in presence of NADPH; assay type: ADME
Cytochrome P450 3A4 [16] = molecular target: T1, Cytochrome P450 3A4; experiment: Time dependent inhibition of CYP3A4 in human liver microsomes using testosterone as substrate preincubated for 30 mins followed by 10-fold dilution and substrate addition by LC-MS/MS analysis in presence of NADPH; assay type: ADME
Cytochrome P450 3A4 [17] = molecular target: T1, Cytochrome P450 3A4; experiment: Inhibition of CYP3A4 in human liver microsomes using testosterone as substrate assessed as unbound inhibitor concentration required for half maximal enzyme inactivation after 2 to 10 mins by LC-MS/MS analysis; assay type: ADME
Cytochrome P450 3A4 [18] = molecular target: T1, Cytochrome P450 3A4; experiment: Ratio of Kinact to Ki for CYP3A4 in human liver microsomes using midazolam as substrate; assay type: ADME
Cytochrome P450 3A4 [19] = molecular target: T1, Cytochrome P450 3A4; experiment: Ratio of Kinact to Ki for CYP3A4 in human liver microsomes using testosterone as substrate; assay type: ADME
CYP3A4 [20] = molecular target: T2, CYP3A4; experiment: (§3) Ratio of IC50 for CYP3A4 in human liver microsomes using midazolam as substrate preincubated for 30 mins followed by 10-fold dilution and substrate addition to IC50 for CYP3A4 in human liver microsomes using midazolam as substrate preincubated for 30 mins followed by 10-fold dilution and substrate addition in presence of NADPH; conditions: probe midazolam, read-out: Ratio IC50
CYP3A4 [21] = molecular target: T2, CYP3A4; experiment: as §3, with “testosterone” for “midazolam”; conditions: probe testosterone, read-out: Ratio IC50
Cytochrome P450 3A4 [22] = molecular target: T1, Cytochrome P450 3A4; experiment: Inactivation of recombinant CYP3A4 (unknown origin) using midazolam as substrate assessed as partition ratio up to 30 uM preincubated for 5 mins followed by dialysis measured after 4 hrs; assay type: ADME; conditions: recombinant enzyme

T2 sequence (P08684 whole entry): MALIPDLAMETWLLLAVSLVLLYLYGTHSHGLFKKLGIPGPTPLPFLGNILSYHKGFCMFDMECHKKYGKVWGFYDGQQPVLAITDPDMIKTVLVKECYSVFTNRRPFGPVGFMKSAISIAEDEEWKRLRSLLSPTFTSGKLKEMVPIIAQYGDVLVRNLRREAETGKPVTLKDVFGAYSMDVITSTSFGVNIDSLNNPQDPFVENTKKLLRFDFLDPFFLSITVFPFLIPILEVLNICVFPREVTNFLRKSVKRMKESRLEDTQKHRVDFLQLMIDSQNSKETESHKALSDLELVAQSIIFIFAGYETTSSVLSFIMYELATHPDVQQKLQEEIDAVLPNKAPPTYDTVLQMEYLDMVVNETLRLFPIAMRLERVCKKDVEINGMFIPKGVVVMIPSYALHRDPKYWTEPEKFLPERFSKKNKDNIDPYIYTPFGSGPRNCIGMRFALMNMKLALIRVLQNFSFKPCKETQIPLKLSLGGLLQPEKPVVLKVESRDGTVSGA
T1 sequence (P08684 whole entry): as above

## C[C@H](c1nc2ncccc2c(=O)n1-c1cc(SC[C@H](NC(=O)[C@@H](N)CCC(=O)O)C(=O)NCC(=O)O)c(O)cc1O)N(Cc1cccnc1)C(=O)Cc1ccc(OC(F)(F)F)cc1
Cytochrome P450 3A4 [1]
  Drug metabolism: metabolite_detected

## [3H]c1ncccc1CN(C(=O)Cc1ccc(OC(F)(F)F)cc1)[C@H](C)c1nc2ncccc2c(=O)n1-c1ccc(O)cc1
Cytochrome P450 3A4 [2]
  Drug metabolism: metabolite_detected
Cytochrome P450 3A4 [3]
  Drug metabolism: metabolite_detected

## C[C@H](c1nc2ncccc2c(=O)n1-c1ccc(O)cc1)N(Cc1ccc[n+]([O-])c1)C(=O)Cc1ccc(OC(F)(F)F)cc1
Cytochrome P450 3A4 [4]
  Drug metabolism: metabolite_detected

## C[C@H](c1nc2ncccc2c(=O)n1-c1ccc(O)cc1)N(Cc1cccnc1)C(=O)Cc1ccc(OC(F)(F)F)cc1
Cytochrome P450 3A4 [5]
  inhibition (INH): Active
Cytochrome P450 3A4 [6]
  inhibition (INH): Active
CYP3A4 [7]
  kinact: 0.00147 s⁻¹
Cytochrome P450 3A4 [8]
  Ki: 1900 nM
CYP3A4 [9]
  kinact: 0.00165 s⁻¹
Cytochrome P450 3A4 [10]
  Ki: 1900 nM
Cytochrome P450 3A4 [11]
  Ki: 730 nM
Cytochrome P450 3A4 [12]
  Ratio: 36
Cytochrome P450 3A4 [13]
  IC50: 650 nM
Cytochrome P450 3A4 [14]
  IC50: 2100 nM
Cytochrome P450 3A4 [15]
  IC50: 27 nM
Cytochrome P450 3A4 [16]
  IC50: 68 nM
Cytochrome P450 3A4 [17]
  Ki: 740 nM
Cytochrome P450 3A4 [18]
  Ratio: 0.12 mL/min/nmol
Cytochrome P450 3A4 [19]
  Ratio: 0.13 mL/min/nmol
CYP3A4 [20]
  IC50 shift at 30 min: 24
CYP3A4 [21]
  IC50 shift at 30 min: 31
Cytochrome P450 3A4 [22]
  Ratio: 36

## C[C@H](c1nc2ncccc2c(=O)n1-c1cc(O)c(O)cc1SC[C@H](NC(=O)[C@@H](N)CCC(=O)O)C(=O)NCC(=O)O)N(Cc1cccnc1)C(=O)Cc1ccc(OC(F)(F)F)cc1
Cytochrome P450 3A4 [1]
  Drug metabolism: metabolite_detected

## C[C@H](c1nc2ncccc2c(=O)n1-c1cc(O)c(O)c(SC[C@H](NC(=O)[C@@H](N)CCC(=O)O)C(=O)NCC(=O)O)c1)N(Cc1cccnc1)C(=O)Cc1ccc(OC(F)(F)F)cc1
Cytochrome P450 3A4 [1]
  Drug metabolism: metabolite_detected

## CC(c1nc2ncccc2c(=O)n1-c1ccc(O)c(SC[C@H](NC(=O)[C@@H](N)CCC(=O)O)C(=O)NCC(=O)O)c1O)N(Cc1cccnc1)C(=O)Cc1ccc(OC(F)(F)F)cc1 (single isomer, unassigned)
Cytochrome P450 3A4 [1]
  Drug metabolism: metabolite_detected

## C[C@H](c1nc2ncccc2c(=O)n1-c1c(O)cc(O)cc1SC[C@H](NC(=O)[C@@H](N)CCC(=O)O)C(=O)NCC(=O)O)N(Cc1cccnc1)C(=O)Cc1ccc(OC(F)(F)F)cc1
Cytochrome P450 3A4 [1]
  Drug metabolism: metabolite_detected

## C[C@H](c1nc2ncccc2c(=O)n1-c1ccc(O)cc1O)N(Cc1cccnc1)C(=O)Cc1ccc(OC(F)(F)F)cc1
Cytochrome P450 3A4 [1]
  Drug metabolism: metabolite_detected

## C[C@H](c1nc2ncccc2c(=O)n1-c1ccc(O)c(O)c1)N(Cc1cccnc1)C(=O)Cc1ccc(OC(F)(F)F)cc1
Cytochrome P450 3A4 [1]
  Drug metabolism: metabolite_detected

## CC(c1nc2ncccc2c(=O)n1-c1ccc(O)c(O)c1SC[C@H](NC(=O)[C@@H](N)CCC(=O)O)C(=O)NCC(=O)O)N(Cc1cccnc1)C(=O)Cc1ccc(OC(F)(F)F)cc1 (single isomer, unassigned)
Cytochrome P450 3A4 [1]
  Drug metabolism: metabolite_detected
